Measurements taken from ChEMBL document CHEMBL1152855, “Regioselective synthesis of dispiro[1H-indene-2,3'-pyrrolidine-2',3''-[3H]indole]-1,2''(1''H)-diones of potential anti-tumor properties” (2009).

Assays:
Assay type in all cases: functional
Conditions in all cases: route intraperitoneal
Rattus norvegicus [1] = assay: Antiinflammatory activity against carrageenan-induced paw edema in Wister albino rat assessed as inhibition of edema at 50 mg/kg, ip administered 1 hr prior to carrageenan challenge measured after 4 hrs relative to control
Rattus norvegicus [2] = assay: Antiinflammatory activity against carrageenan-induced paw edema in Wister albino rat assessed as inhibition of edema at 50 mg/kg, ip administered 1 hr prior to carrageenan challenge measured after 4 hrs relative to indomethacin
Rattus norvegicus [3] = assay: Antiinflammatory activity against carrageenan-induced paw edema in Wister albino rat assessed as inhibition of edema at 50 mg/kg, ip administered 1 hr prior to carrageenan challenge measured after 1 hr relative to control
Rattus norvegicus [4] = assay: Antiinflammatory activity against carrageenan-induced paw edema in Wister albino rat assessed as inhibition of edema at 50 mg/kg, ip administered 1 hr prior to carrageenan challenge measured after 2 hrs relative to control
Rattus norvegicus [5] = assay: Antiinflammatory activity against carrageenan-induced paw edema in Wister albino rat assessed as inhibition of edema at 50 mg/kg, ip administered 1 hr prior to carrageenan challenge measured after 3 hrs relative to control
Rattus norvegicus [6] = assay: Antiinflammatory activity against carrageenan-induced paw edema in Wister albino rat assessed as inhibition of edema at 10 mg/kg, ip administered 1 hr prior to carrageenan challenge measured after 1 hr relative to control
Rattus norvegicus [7] = assay: Antiinflammatory activity against carrageenan-induced paw edema in Wister albino rat assessed as inhibition of edema at 10 mg/kg, ip administered 1 hr prior to carrageenan challenge measured after 2 hrs relative to control
Rattus norvegicus [8] = assay: Antiinflammatory activity against carrageenan-induced paw edema in Wister albino rat assessed as inhibition of edema at 10 mg/kg, ip administered 1 hr prior to carrageenan challenge measured after 3 hrs relative to control
Rattus norvegicus [9] = assay: Antiinflammatory activity against carrageenan-induced paw edema in Wister albino rat assessed as inhibition of edema at 10 mg/kg, ip administered 1 hr prior to carrageenan challenge measured after 4 hrs relative to control

Row | SMILES | inhibition in vivo at 50 mg/kg (Rattus norvegicus [1]) [%] | activity relative to indomethacin (Rattus norvegicus [2]) [%] | inhibition in vivo at 50 mg/kg (Rattus norvegicus [3]) [%] | inhibition in vivo at 50 mg/kg (Rattus norvegicus [4]) [%] | inhibition in vivo at 50 mg/kg (Rattus norvegicus [5]) [%] | inhibition in vivo at 10 mg/kg (Rattus norvegicus [6]) [%] | inhibition in vivo at 10 mg/kg (Rattus norvegicus [7]) [%] | inhibition in vivo at 10 mg/kg (Rattus norvegicus [8]) [%] | inhibition in vivo at 10 mg/kg (Rattus norvegicus [9]) [%]
1 | [3H]C([3H])([3H])N1C(=O)[C@@]2(c3ccccc31)N(C)C[C@@H](c1ccco1)[C@@]21Cc2ccccc2C1=O | 8.2 | 17 | 50.1 | 33.1 | 17.5 |  |  |  | 
2 | [3H]N1C(=O)[C@@]2(c3ccccc31)N(C)C[C@@H](c1ccccc1)[C@@]21Cc2ccccc2C1=O | 39.3 | 81 | 56 | 40 | 42.5 |  |  |  | 
3 | [3H]N1C(=O)[C@@]2(c3ccccc31)N(C)C[C@@H](c1ccc(F)cc1)[C@@]21Cc2ccccc2C1=O | 21.8 | 45 | 40.6 | 21.2 | 21.1 |  |  |  | 
4 | [3H]N1C(=O)[C@@]2(c3ccccc31)N(C)C[C@@H](c1ccc(C)cc1)[C@@]21Cc2ccccc2C1=O | 17.1 | 35 | 56.4 | 23.8 | 27.4 |  |  |  | 
5 | COc1ccc2c(c1)c(CC(=O)O)c(C)n2C(=O)c1ccc(Cl)cc1 [INDOMETHACIN] |  |  |  |  |  | 51 | 45.6 | 48.3 | 48.5
6 | [3H]C([3H])([3H])N1C(=O)[C@@]2(c3ccccc31)N(C)C[C@@H](c1ccc(C)cc1)[C@@]21Cc2ccccc2C1=O | 13.9 | 29 | 46.9 | 8 | 6.4 |  |  |  | 
7 | [3H]C([3H])([3H])N1C(=O)[C@@]2(c3ccccc31)N(C)C[C@@H](c1ccc(F)cc1)[C@@]21Cc2ccccc2C1=O | 25.5 | 53 | 52.9 | 24.6 | 26.9 |  |  |  | 
8 | [3H]N1C(=O)[C@@]2(c3ccccc31)N(C)C[C@@H](c1ccco1)[C@@]21Cc2ccccc2C1=O | 33.5 | 69 | 48.8 | 53.6 | 38.8 |  |  |  | 
